Measurements: patent US11053204B2, “Pyrimidinyloxy benzene derivatives as herbicides” (FMC Corporation, priority 2015, dated 2021)

What was measured:
Experiment in all cases: Test C postemergence, plant response rating
Assay type in all cases: in vivo
[1] = tested on: ragweed (common ragweed, Ambrosia elatior); settings: for Ragweed plant response rating: scale 0 to 100 (0 no effect, 100 complete control)
Method in brief: (§1)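 After sowing in loam–sand blend or silt loam, pots were sprayed preemergence; separately grown 1- to 4-leaf plants were sprayed postemergence. Following 13 to 15 d under greenhouse conditions, injury was rated visually on a 0 to 100 scale.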

[2] = tested on: barnyardgrass (Echinochloa crus-galli); settings: for Plant response rating, Barnyardgrass: scale 0 to 100; for Barnyardgrass plant response rating: scale 0 to 100 (0 no effect, 100 complete control)
Method in brief: as §1

[3] = tested on: blackgrass (Alopecurus myosuroides); settings: for Plant response rating, Blackgrass: scale 0 to 100; for Blackgrass plant response rating: scale 0 to 100 (0 no effect, 100 complete control)
Method in brief: as §1

[4] = tested on: wheat (winter wheat, Triticum aestivum); settings: for Wheat plant response rating: 125 g ai/ha, scale 0 to 100 (0 no effect, 100 complete control)
Method in brief: as §1

[5] = tested on: velvetleaf (Abutilon theophrasti); settings: for Velvetleaf plant response rating: 125 g ai/ha, scale 0 to 100 (0 no effect, 100 complete control)
Method in brief: as §1

[6] = tested on: foxtail, giant (giant foxtail, Setaria faberii); settings: for Foxtail, Giant plant response rating: scale 0 to 100 (0 no effect, 100 complete control)
Method in brief: as §1

corn (Zea mays) = settings: for Corn plant response rating: scale 0 to 100 (0 no effect, 100 complete control)
Method in brief: as §1

[7] = tested on: waterhemp (common waterhemp, Amaranthus rudis); settings: for Waterhemp plant response rating: 125 g ai/ha, scale 0 to 100 (0 no effect, 100 complete control)
Method in brief: as §1

[8] = tested on: oilseed rape (Brassica napus); settings: for Oilseed Rape plant response rating: scale 0 to 100 (0 no effect, 100 complete control)
Method in brief: as §1

[9] = tested on: lambsquarters (Chenopodium album); settings: for Lambsquarters plant response rating: scale 0 to 100 (0 no effect, 100 complete control)
Method in brief: as §1

[10] = tested on: ryegrass, Italian (Italian ryegrass, Lolium multiflorum); settings: for Ryegrass, Italian plant response rating: scale 0 to 100 (0 no effect, 100 complete control)
Method in brief: as §1

[11] = tested on: galium (catchweed bedstraw, Galium aparine); settings: for Galium plant response rating: scale 0 to 100 (0 no effect, 100 complete control)
Method in brief: as §1

[12] = tested on: crabgrass, large (large crabgrass, Digitaria sanguinalis); settings: for Crabgrass, Large plant response rating: scale 0 to 100 (0 no effect, 100 complete control)
Method in brief: as §1

soybean (Glycine max) = settings: for Soybean plant response rating: scale 0 to 100 (0 no effect, 100 complete control)
Method in brief: as §1

[13] = tested on: nutsedge, yellow (yellow nutsedge, Cyperus esculentus); settings: for Nutsedge, Yellow plant response rating: scale 0 to 100 (0 no effect, 100 complete control)
Method in brief: as §1

[14] = tested on: oat, wild (wild oat Avena fatua); settings: for Oat, Wild plant response rating: scale 0 to 100 (0 no effect, 100 complete control)
Method in brief: as §1

## O=C(CCC(F)(F)C(F)(F)F)c1c(Br)cccc1Oc1ncc(Cl)cn1 [Compound 110]
[1]; 16 g ai/ha, scale of 0 to 100
  Plant response rating, Ragweed: 40
[1]; 31 g ai/ha, scale 0 to 100
  Plant response rating, Ragweed: 50
[1]; 62 g ai/ha
  Ragweed plant response rating: 60
[1]; 125 g ai/ha
  Ragweed plant response rating: 60
[2]; 16 g ai/ha
  Plant response rating, Barnyardgrass: 10
[2]; 31 g ai/ha
  Plant response rating, Barnyardgrass: 10
[2]; 62 g ai/ha
  Barnyardgrass plant response rating: 20
[2]; 125 g ai/ha
  Barnyardgrass plant response rating: 30
[3]; 16 g ai/ha
  Plant response rating, Blackgrass: 10
[3]; 31 g ai/ha
  Plant response rating, Blackgrass: 15
[3]; 62 g ai/ha
  Blackgrass plant response rating: 20
[3]; 125 g ai/ha
  Blackgrass plant response rating: 25
[4]; 16 g ai/ha, scale of 0 to 100
  Plant response rating, Wheat: 5
[4]; 31 g ai/ha, scale 0 to 100
  Plant response rating, Wheat: 5
[4]
  Wheat plant response rating: 15
[5]; 16 g ai/ha, scale of 0 to 100
  Plant response rating, Velvetleaf: 50
[5]; 31 g ai/ha, scale 0 to 100
  Plant response rating, Velvetleaf: 40
[5]
  Velvetleaf plant response rating: 75
[6]; 16 g ai/ha, scale of 0 to 100
  Plant response rating, Foxtail, Giant: 10
[6]; 31 g ai/ha, scale 0 to 100
  Plant response rating, Foxtail, Giant: 10
[6]; 62 g ai/ha
  Foxtail, Giant plant response rating: 25
[6]; 125 g ai/ha
  Foxtail, Giant plant response rating: 25
Corn (Zea mays); 16 g ai/ha, scale of 0 to 100
  Plant response rating, Corn: 10
Corn (Zea mays); 31 g ai/ha, scale 0 to 100
  Plant response rating, Corn: 20
Corn (Zea mays); 62 g ai/ha
  Corn plant response rating: 20
Corn (Zea mays); 125 g ai/ha
  Corn plant response rating: 15
[7]; 16 g ai/ha, scale of 0 to 100
  Plant response rating, Waterhemp: 85
[7]; 31 g ai/ha, scale 0 to 100
  Plant response rating, Waterhemp: 90
[7]
  Waterhemp plant response rating: 95
[8]; 16 g ai/ha, scale of 0 to 100
  Plant response rating, Oilseed Rape: 60
[8]; 31 g ai/ha, scale 0 to 100
  Plant response rating, Oilseed Rape: 60
[8]; 62 g ai/ha
  Oilseed Rape plant response rating: 85
[8]; 125 g ai/ha
  Oilseed Rape plant response rating: 95
[9]; 16 g ai/ha, scale of 0 to 100
  Plant response rating, Lambsquarters: 75
[9]; 31 g ai/ha, scale 0 to 100
  Plant response rating, Lambsquarters: 90
[9]; 62 g ai/ha
  Lambsquarters plant response rating: 95
[9]; 125 g ai/ha
  Lambsquarters plant response rating: 98
[10]; 16 g ai/ha, scale of 0 to 100
  Plant response rating, Ryegrass, Italian: 5
[10]; 31 g ai/ha, scale 0 to 100
  Plant response rating, Ryegrass, Italian: 10
[10]; 62 g ai/ha
  Ryegrass, Italian plant response rating: 15
[10]; 125 g ai/ha
  Ryegrass, Italian plant response rating: 20
[11]; 16 g ai/ha, scale of 0 to 100
  Plant response rating, Galium: 60
[11]; 31 g ai/ha, scale 0 to 100
  Plant response rating, Galium: 75
[11]; 62 g ai/ha
  Galium plant response rating: 75
[11]; 125 g ai/ha
  Galium plant response rating: 90
[12]; 16 g ai/ha, scale of 0 to 100
  Plant response rating, Crabgrass, Large: 10
[12]; 31 g ai/ha, scale 0 to 100
  Plant response rating, Crabgrass, Large: 20
[12]; 62 g ai/ha
  Crabgrass, Large plant response rating: 25
[12]; 125 g ai/ha
  Crabgrass, Large plant response rating: 60
Soybean (Glycine max); 16 g ai/ha, scale of 0 to 100
  Plant response rating, Soybean: 40
Soybean (Glycine max); 31 g ai/ha, scale 0 to 100
  Plant response rating, Soybean: 40
Soybean (Glycine max); 62 g ai/ha
  Soybean plant response rating: 50
Soybean (Glycine max); 125 g ai/ha
  Soybean plant response rating: 35
[13]; 16 g ai/ha, scale of 0 to 100
  Plant response rating, Nutsedge, Yellow: 0
[13]; 31 g ai/ha, scale 0 to 100
  Plant response rating, Nutsedge, Yellow: 5
[13]; 62 g ai/ha
  Nutsedge, Yellow plant response rating: 5
[13]; 125 g ai/ha
  Nutsedge, Yellow plant response rating: 5
[14]; 16 g ai/ha, scale of 0 to 100
  Plant response rating, Oat, Wild: 20
[14]; 31 g ai/ha, scale 0 to 100
  Plant response rating, Oat, Wild: 30
[14]; 62 g ai/ha
  Oat, Wild plant response rating: 45
[14]; 125 g ai/ha
  Oat, Wild plant response rating: 55

## FC(F)(F)CCCCc1c(Cl)cccc1Oc1ncc(Cl)cn1 [Compound 137]
[1]; 16 g ai/ha, scale of 0 to 100
  Plant response rating, Ragweed: 20
[1]; 31 g ai/ha, scale 0 to 100
  Plant response rating, Ragweed: 35
[1]; 62 g ai/ha
  Ragweed plant response rating: 30
[1]; 125 g ai/ha
  Ragweed plant response rating: 30
[2]; 16 g ai/ha
  Plant response rating, Barnyardgrass: 10
[2]; 31 g ai/ha
  Plant response rating, Barnyardgrass: 10
[2]; 62 g ai/ha
  Barnyardgrass plant response rating: 20
[2]; 125 g ai/ha
  Barnyardgrass plant response rating: 40
[3]; 16 g ai/ha
  Plant response rating, Blackgrass: 5
[3]; 31 g ai/ha
  Plant response rating, Blackgrass: 10
[3]; 62 g ai/ha
  Blackgrass plant response rating: 15
[3]; 125 g ai/ha
  Blackgrass plant response rating: 40
[4]; 16 g ai/ha, scale of 0 to 100
  Plant response rating, Wheat: 5
[4]; 31 g ai/ha, scale 0 to 100
  Plant response rating, Wheat: 5
[4]
  Wheat plant response rating: 20
[5]; 16 g ai/ha, scale of 0 to 100
  Plant response rating, Velvetleaf: 10
[5]; 31 g ai/ha, scale 0 to 100
  Plant response rating, Velvetleaf: 15
[5]
  Velvetleaf plant response rating: 70
[6]; 16 g ai/ha, scale of 0 to 100
  Plant response rating, Foxtail, Giant: 20
[6]; 31 g ai/ha, scale 0 to 100
  Plant response rating, Foxtail, Giant: 20
[6]; 62 g ai/ha
  Foxtail, Giant plant response rating: 40
[6]; 125 g ai/ha
  Foxtail, Giant plant response rating: 35
Corn (Zea mays); 16 g ai/ha, scale of 0 to 100
  Plant response rating, Corn: 10
Corn (Zea mays); 31 g ai/ha, scale 0 to 100
  Plant response rating, Corn: 15
Corn (Zea mays); 62 g ai/ha
  Corn plant response rating: 15
Corn (Zea mays); 125 g ai/ha
  Corn plant response rating: 25
[7]; 16 g ai/ha, scale of 0 to 100
  Plant response rating, Waterhemp: 40
[7]; 31 g ai/ha, scale 0 to 100
  Plant response rating, Waterhemp: 60
[7]
  Waterhemp plant response rating: 75
[8]; 16 g ai/ha, scale of 0 to 100
  Plant response rating, Oilseed Rape: 90
[8]; 31 g ai/ha, scale 0 to 100
  Plant response rating, Oilseed Rape: 95
[8]; 62 g ai/ha
  Oilseed Rape plant response rating: 90
[8]; 125 g ai/ha
  Oilseed Rape plant response rating: 100
[9]; 16 g ai/ha, scale of 0 to 100
  Plant response rating, Lambsquarters: 55
[9]; 31 g ai/ha, scale 0 to 100
  Plant response rating, Lambsquarters: 75
[9]; 62 g ai/ha
  Lambsquarters plant response rating: 85
[9]; 125 g ai/ha
  Lambsquarters plant response rating: 90
[10]; 16 g ai/ha, scale of 0 to 100
  Plant response rating, Ryegrass, Italian: 5
[10]; 31 g ai/ha, scale 0 to 100
  Plant response rating, Ryegrass, Italian: 5
[10]; 62 g ai/ha
  Ryegrass, Italian plant response rating: 5
[10]; 125 g ai/ha
  Ryegrass, Italian plant response rating: 10
[11]; 16 g ai/ha, scale of 0 to 100
  Plant response rating, Galium: 55
[11]; 31 g ai/ha, scale 0 to 100
  Plant response rating, Galium: 70
[11]; 62 g ai/ha
  Galium plant response rating: 75
[11]; 125 g ai/ha
  Galium plant response rating: 85
[12]; 16 g ai/ha, scale of 0 to 100
  Plant response rating, Crabgrass, Large: 10
[12]; 31 g ai/ha, scale 0 to 100
  Plant response rating, Crabgrass, Large: 20
[12]; 62 g ai/ha
  Crabgrass, Large plant response rating: 40
[12]; 125 g ai/ha
  Crabgrass, Large plant response rating: 70
Soybean (Glycine max); 16 g ai/ha, scale of 0 to 100
  Plant response rating, Soybean: 20
Soybean (Glycine max); 31 g ai/ha, scale 0 to 100
  Plant response rating, Soybean: 30
Soybean (Glycine max); 62 g ai/ha
  Soybean plant response rating: 45
Soybean (Glycine max); 125 g ai/ha
  Soybean plant response rating: 40
[13]; 16 g ai/ha, scale of 0 to 100
  Plant response rating, Nutsedge, Yellow: 0
[13]; 31 g ai/ha, scale 0 to 100
  Plant response rating, Nutsedge, Yellow: 0
[13]; 62 g ai/ha
  Nutsedge, Yellow plant response rating: 10
[13]; 125 g ai/ha
  Nutsedge, Yellow plant response rating: 5
[14]; 16 g ai/ha, scale of 0 to 100
  Plant response rating, Oat, Wild: 5
[14]; 31 g ai/ha, scale 0 to 100
  Plant response rating, Oat, Wild: 10
[14]; 62 g ai/ha
  Oat, Wild plant response rating: 10
[14]; 125 g ai/ha
  Oat, Wild plant response rating: 10
